Data on nine compounds can be found in patent publication US6528068B1, “Cosmetic composition containing N-acyl neutral amino acid esters of lower alcohols” (Ajinomoto Co., Inc., priority 1997, dated 2003).

Data set [1] can be described thus: Examination of solubility of a UV-A absorbent in various oily materials. The following applies: amount of “Soft Shade DH” dissolved in 100 g of the oily material.
Data set [2] is described as follows: Evaluation of pigment dispersibility (wetting point / flowing point). In kind it is physicochemical. The following applies: difference between wetting point and flowing point; liquid paraffin added to TiO2 containing 10% by weight of oily material. Here is the method:
With respect to various oily materials including some N-acylamino acid esters of the present invention, powdery compositions formed by blending each oily material with a powder pigment of titanium dioxide (TiO2) were evaluated or examined from various aspects. This will be described in detail below.
The minimum value in terms of parts by weight in which the powder was put together was defined as wetting point. […] Liquid paraffin was further added thereto from the wetting point, and the minimum numeral of parts by weight of the liquid paraffin in which the mixture came to show a fluidity was defined as flowing point.
The smaller the difference between the wetting point and the flowing point, the better the dispersibility (“Science of Fragrance”, published by Fragrance Journal in 1990, p. 390). Accordingly, the index of pigment dispersibility was evaluated in terms of the difference between the wetting point and the flowing point. That is, in Table 47, when the difference between the wetting point and the flowing point was up to 35, it was rated as ∘∘; when the difference was between 36 and 45, it was rated as ∘; and when the difference was between 46 and 55, it was rated as Δ; and when the difference was 56 or more, it was rated as ×.

The conditions of data set [3]: solids; cited from earlier work.
The conditions of data set [4]: Jap. pat. Publn. (kokoku); cited from earlier work.

For the compound `CCCCCCCCCCCC(=O)N(C)CC(=O)OCCCCCCCCCCCCCCCC(C)C` [Reference Synthesis Example 1, N-lauroylsarcosine isostearyl ester], the Solubility entry in data set [1] is given as “X (The amount of the compound dissolved in 100 g of the oily material is less than 5 g.)”. Also, the Pigment dispersibility entry in data set [2] was “Δ (when the difference was between 46 and 55, it was rated as Δ)”. Consider `CCCCCCCCCCCC(=O)N[C@@H](CCC(=O)OCC(CCCCCCCC)CCCCCCCCCC)C(=O)OCC(CCCCCCCC)CCCCCCCCCC` (stereo partly shown) [lauroylglutamic acid octyldodecyl diester], for which the Pigment dispersibility entry in data set [2] is “Δ (when the difference was between 46 and 55, it was rated as Δ)”. Consider `CCCCCCCCCCCC(=O)N(C)CCC(=O)OC(C)C` [Synthesis Example 15, N-lauroyl-N-methyl-β-alanine isopropyl ester], for which the Solubility entry in data set [1] is “◯ (It is at least 10 g.)”. Also, in data set [2], the Pigment dispersibility entry was “◯◯”. In the case of `CCCCCCCCCCCCCCCCCC(=O)OCC(O)CO` (stereo not shown) [glycerol stearate], the Solubility result in data set [1] is given as “X (The amount of the compound dissolved in 100 g of the oily material is less than 5 g.)”. For the compound `CCCCCCCCCCCC(=O)N(C)CC(=O)OCC(CCCCCCCC)CCCCCCCCCC` (stereo not shown) [Reference Synthesis Example 2, N-lauroylsarcosine octyl dodecyl ester], the Solubility entry in data set [1] is given as “X (The amount of the compound dissolved in 100 g of the oily material is less than 5 g.)”. In the case of `COc1ccc(C(=O)CC(=O)c2ccc(C(C)(C)C)cc2)cc1` [4-t-butyl-4′-methoxybenzoylmethane], the “solubility in water and oil” value in data set [3] was “sparingly soluble in water and oil”.

For the compound `CCCCC(CC)C(=O)N(C)CCC(=O)OC` (stereo not drawn) [N-2-ethylhexanoyl-N-methyl-β-alanine.methyl ester], the “compatibility with an oily solvent” value in data set [4] is recorded as “poor”.

For `CCCCCCCCCCCCCC(=O)OC(C)C` [isopropyl myristate], the Solubility entry in data set [1] is “X (The amount of the compound dissolved in 100 g of the oily material is less than 5 g.)”. For the same compound, the Pigment dispersibility entry in data set [2] is “Δ (when the difference was between 46 and 55, it was rated as Δ)”.

Regarding `CCCCCCCCCCCC(=O)N(C)CC(=O)OC(C)C` [Synthesis Example 14, N-laurolysarcosine isopropyl ester], the Solubility entry in data set [1] was “◯ (It is at least 10 g.)”. Also, the Pigment dispersibility result in data set [2] was “◯◯”.
